Laboratory results published in patent US6737383B1, “Herbicidal oxadiazolidines” (priority 1999, dated 2004).

Experiments:
smallflower flatsedge = assay: Test B flood test smallflower flatsedge; assay type: in vivo, Cyperus difformis
Method in brief: (§1)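 Plants were grown to the 2-leaf stage before treatment with test chemical, then held in a greenhouse for twelve to sixteen days. Injury was visually rated against untreated controls on a 0–10 scale, where 0 is no effect and 10 is complete control.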

wheat = assay: Test B pre/postemergence wheat; assay type: in vivo, Triticum aestivum
Method in brief: (§2)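 Response is a visual 0-to-10 score relative to untreated plants, where 0 means no effect and 10 means complete control, taken twelve to sixteen days after application. Treatments went onto soil at planting and onto foliage of 1- to 4-leaf plants, using a surfactant-containing non-phytotoxic solvent.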

purple nutsedge = assay: Test B pre/postemergence purple nutsedge; assay type: in vivo, Cyperus rotundus
Method in brief: as §2

crabgrass = assay: Test B pre/postemergence crabgrass; assay type: in vivo, Digitaria sanguinalis
Method in brief: as §2

pigweed = assay: Test B pre/postemergence pigweed; assay type: in vivo, Amaranthus retroflexus
Method in brief: as §2

rice = assay: Test B flood test rice; assay type: in vivo, Oryza sativa
Method in brief: as §1

sugar beet = assay: Test B pre/postemergence sugar beet; assay type: in vivo, Beta vulgaris
Method in brief: as §2

bamyardgrass = assay: Test B flood test barnyardgrass; assay type: in vivo, Echinochloa crus-galli
Method in brief: as §1

wild oat = assay: Test B pre/postemergence wild oat; assay type: in vivo, Avena fatua
Method in brief: as §2

morningglory = assay: Test B pre/postemergence morningglory; assay type: in vivo, Ipomoea hederacea
Method in brief: as §2

duck salad = assay: Test B flood test duck salad; assay type: in vivo, Heteranthera limosa
Method in brief: as §1

giant foxtail = assay: Test B pre/postemergence giant foxtail; assay type: in vivo, Setaria faberii
Method in brief: as §2

velvetleaf = assay: Test B pre/postemergence velvetleaf; assay type: in vivo, Abutilon theophrasti
Method in brief: as §2

rape = assay: Test B pre/postemergence rape; assay type: in vivo, Brassica napus
Method in brief: as §2

soybean = assay: Test B pre/postemergence soybean; assay type: in vivo, Glycine max
Method in brief: as §2

surinam grass = assay: Test B pre/postemergence surinam grass; assay type: in vivo, Brachiaria decumbens
Method in brief: as §2

cocklebur = assay: Test B pre/postemergence cocklebur; assay type: in vivo, Xanthium strumarium
Method in brief: as §2

corn = assay: Test B pre/postemergence corn; assay type: in vivo, Zea mays
Method in brief: as §2

blackgrass = assay: Test B pre/postemergence blackgrass; assay type: in vivo, Alopecurus myosuroides
Method in brief: as §2

bedstraw = assay: Test B pre/postemergence bedstraw; assay type: in vivo, Galium aparine; conditions: Postemergence, Rate 125 g/ha; scale 0 to 10, 0 is no effect, 10 is complete control
Method in brief: as §2

[1] = Rate 62 g/ha, flood test species, Pre-emergence, visual evaluation after twelve to sixteen days
[2] = Rate 125 g/ha, under heading Pre-emergence, flood test species, visual evaluation after twelve to sixteen days
[3] = Rate 250 g/ha, Pre-emergence (flood test species), scale 0 to 10, 0 is no effect, 10 is complete control
[4] = Rate 500 g/ha, Pre-emergence section of Table B, 0 to 10 scale (0 no effect, 10 complete control)
[5] = Postemergence, Rate 125 g/ha, scale 0 to 10, 0 is no effect, 10 is complete control
[6] = Postemergence, Rate 500 g/ha, scale 0 to 10, 0 is no effect, 10 is complete control
[7] = Preemergence, Rate 62 g/ha, scale of 0 to 10 where 0 is no effect and 10 is complete control
[8] = Preemergence, Rate 125 g/ha, scale 0 to 10, 0 is no effect, 10 is complete control
[9] = Preemergence, Rate 500 g/ha, scale 0 to 10, 0 is no effect, 10 is complete control
[10] = Rate 62 g/ha, Postemergence, scale 0 to 10 (0 no effect, 10 complete control)
[11] = Postemergence, Rate 250 g/ha, scale 0 to 10
[12] = Preemergence, Rate 250 g/ha, scale 0 to 10, 0 is no effect, 10 is complete control

## CC(C)N(C(=O)n1oc(=O)n(CC(=O)C2CC2)c1=O)c1ccc(F)cc1F [Compound 490]
Smallflower flatsedge; [1]
  Plant response rating, S. Flatsedge (0 to 10 scale, 0 is no effect, 10 is complete control): 0
Smallflower flatsedge; [2]
  S. Flatsedge plant response rating (0 to 10 scale, 0 is no effect, 10 is complete control): 0
Smallflower flatsedge; [3]
  S. Flatsedge plant response rating: 0
Smallflower flatsedge; [4]
  S. Flatsedge plant response rating: 0
wheat; [5]
  Wheat plant response rating: 0
wheat; [6]
  Plant response rating, Wheat: 0
wheat; [7]
  Plant response rating, Wheat: 0
wheat; [8]
  Wheat plant response rating: 0
wheat; [9]
  Wheat plant response rating: 4
wheat; [10]
  Wheat plant response rating: 0
Purple nutsedge; [5]
  Nutsedge plant response rating: 0
Purple nutsedge; [6]
  Plant response rating, Nutsedge: 0
Purple nutsedge; [7]
  Plant response rating, Nutsedge: 0
Purple nutsedge; [8]
  Nutsedge plant response rating: 0
Purple nutsedge; [9]
  Nutsedge plant response rating: 0
Purple nutsedge; [10]
  Nutsedge plant response rating: 0
crabgrass; [5]
  Crabgrass plant response rating: 6
crabgrass; [11]
  Crabgrass plant response rating: 6
crabgrass; [6]
  Plant response rating, Crabgrass: 7
crabgrass; [7]
  Plant response rating, Crabgrass: 8
crabgrass; [8]
  Crabgrass plant response rating: 9
crabgrass; [9]
  Crabgrass plant response rating: 10
crabgrass; [10]
  Crabgrass plant response rating: 3
pigweed; [5]
  Redroot pigweed plant response rating: 0
pigweed; [6]
  Plant response rating, Redroot pigweed: 2
pigweed; [7]
  Plant response rating, Redroot pigweed: 5
pigweed; [8]
  Redroot pigweed plant response rating: 7
pigweed; [9]
  Redroot pigweed plant response rating: 8
pigweed; [10]
  Redroot pigweed plant response rating: 0
rice; [1]
  Plant response rating, Rice (0 to 10 scale, 0 is no effect, 10 is complete control): 0
rice; [2]
  Rice plant response rating (0 to 10 scale, 0 is no effect, 10 is complete control): 0
rice; [3]
  Rice plant response rating: 0
rice; [4]
  Rice plant response rating: 0
Sugar beet; [5]
  Sugarbeets plant response rating: 0
Sugar beet; [6]
  Plant response rating, Sugarbeets: 0
Sugar beet; [7]
  Plant response rating, Sugarbeets: 0
Sugar beet; [8]
  Sugarbeets plant response rating: 0
Sugar beet; [9]
  Sugarbeets plant response rating: 5
Sugar beet; [10]
  Sugarbeets plant response rating: 0
bamyardgrass; [1]
  Plant response rating, Barnyardgrass (0 to 10 scale, 0 is no effect, 10 is complete control): 0
bamyardgrass; [2]
  Barnyardgrass plant response rating (0 to 10 scale, 0 is no effect, 10 is complete control): 0
bamyardgrass; [3]
  Barnyardgrass plant response rating: 0
bamyardgrass; [4]
  Barnyardgrass plant response rating: 0
Wild oat; [5]
  Wild oats plant response rating: 5
Wild oat; [6]
  Plant response rating, Wild oats: 7
Wild oat; [7]
  Plant response rating, Wild oats: 6
Wild oat; [8]
  Wild oats plant response rating: 7
Wild oat; [9]
  Wild oats plant response rating: 8
Wild oat; [10]
  Wild oats plant response rating: 5
morningglory; [5]
  Morningglory plant response rating: 3
morningglory; [6]
  Plant response rating, Morningglory: 3
morningglory; [7]
  Plant response rating, Morningglory: 0
morningglory; [8]
  Morningglory plant response rating: 0
morningglory; [9]
  Morningglory plant response rating: 0
morningglory; [10]
  Morningglory plant response rating: 2
Duck salad; [1]
  Plant response rating, Ducksalad (0 to 10 scale, 0 is no effect, 10 is complete control): 0
Duck salad; [2]
  Ducksalad plant response rating (0 to 10 scale, 0 is no effect, 10 is complete control): 0
Duck salad; [3]
  Ducksalad plant response rating: 0
Duck salad; [4]
  Ducksalad plant response rating: 0
Giant foxtail; [5]
  Giant foxtail plant response rating: 8
Giant foxtail; [6]
  Plant response rating, Giant foxtail: 8
Giant foxtail; [7]
  Plant response rating, Giant foxtail: 9
Giant foxtail; [8]
  Giant foxtail plant response rating: 9
Giant foxtail; [9]
  Giant foxtail plant response rating: 10
Giant foxtail; [10]
  Giant foxtail plant response rating: 2
velvetleaf; [5]
  Velvetleaf plant response rating: 0
velvetleaf; [6]
  Plant response rating, Velvetleaf: 1
velvetleaf; [7]
  Plant response rating, Velvetleaf: 0
velvetleaf; [8]
  Velvetleaf plant response rating: 0
velvetleaf; [9]
  Velvetleaf plant response rating: 4
velvetleaf; [10]
  Velvetleaf plant response rating: 0
rape; [5]
  Rape plant response rating: 0
rape; [6]
  Plant response rating, Rape: 0
rape; [7]
  Plant response rating, Rape: 0
rape; [8]
  Rape plant response rating: 1
rape; [9]
  Rape plant response rating: 8
rape; [10]
  Rape plant response rating: 0
soybean; [5]
  Soybean plant response rating: 5
soybean; [6]
  Plant response rating, Soybean: 6
soybean; [7]
  Plant response rating, Soybean: 0
soybean; [8]
  Soybean plant response rating: 0
soybean; [9]
  Soybean plant response rating: 4
soybean; [10]
  Soybean plant response rating: 4
Surinam grass; [5]
  B. signalgrass plant response rating: 4
Surinam grass; Postemergence, Rate 250 g/ha, scale 0 to 10, 0 no effect, 10 complete control
  B. signalgrass plant response rating: 4
Surinam grass; [6]
  Plant response rating, B. signalgrass: 7
Surinam grass; [7]
  Plant response rating, B. signalgrass: 3
Surinam grass; [8]
  B. signalgrass plant response rating: 5
Surinam grass; [12]
  B. signalgrass plant response rating: 6
Surinam grass; [9]
  B. signalgrass plant response rating: 8
Surinam grass; [10]
  B. signalgrass plant response rating: 2
cocklebur; [5]
  Cocklebur plant response rating: 0
cocklebur; [11]
  Cocklebur plant response rating: 0
cocklebur; [6]
  Plant response rating, Cocklebur: 0
cocklebur; [8]
  Cocklebur plant response rating: 0
cocklebur; [12]
  Cocklebur plant response rating: 0
cocklebur; [10]
  Cocklebur plant response rating: 0
corn; [5]
  Corn plant response rating: 0
corn; [11]
  Corn plant response rating: 0
corn; [6]
  Plant response rating, Corn: 0
corn; [7]
  Plant response rating, Corn: 0
corn; [8]
  Corn plant response rating: 0
corn; [9]
  Corn plant response rating: 5
corn; [10]
  Corn plant response rating: 0
blackgrass; [5]
  Blackgrass plant response rating: 4
blackgrass; [6]
  Plant response rating, Blackgrass: 5
blackgrass; [7]
  Plant response rating, Blackgrass: 7
blackgrass; [8]
  Blackgrass plant response rating: 8
blackgrass; [12]
  Blackgrass plant response rating: 9
blackgrass; [9]
  Blackgrass plant response rating: 9
blackgrass; [10]
  Blackgrass plant response rating: 2
bedstraw
  Bedstraw plant response rating: 3
